Measurements: ChEMBL document CHEMBL5154941, “Structural Modifications of Nimodipine Lead to Novel PDE1 Inhibitors with Anti-pulmonary Fibrosis Effects” (J Med Chem, 2022)
Calls of active or inactive are those of the source.

Columns and labels:
Rattus norvegicus [1] = test: Antifibrotic activity in bleomycin-induced Sprague-Dawley rat lung fibrosis model assessed as reduced septal enlargement at 5 mg/kg, ip administered daily for 28 days by hematoxylin and eosin staining based histopathological analysis; type: functional, organism-based; settings: time 28.0 day
Rattus norvegicus [2] = test: Antifibrotic activity in bleomycin-induced Sprague-Dawley rat lung fibrosis model assessed as decrease in collagen deposition at 2.5 to 5 mg/kg, ip administered daily for 28 days by Masson's trichrome staining based analysis; type: functional, organism-based; settings: dose 2.5-5 mg/kg, time 28.0 day
Rattus norvegicus [3] = test: Antifibrotic activity in bleomycin-induced Sprague-Dawley rat lung fibrosis model assessed as decrease in lung fibrosis at 2.5 to 5 mg/kg, ip administered daily for 28 days by Masson's trichrome staining based analysis; type: functional, organism-based; settings: dose 2.5-5 mg/kg, time 28.0 day
Rattus norvegicus [4] = test: Antifibrotic activity in bleomycin-induced Sprague-Dawley rat lung fibrosis model assessed as decrease in alpha-smooth muscle actin level at 2.5 to 5 mg/kg, ip administered daily for 28 days by Western blot analysis; type: functional, organism-based; settings: dose 2.5-5 mg/kg, time 28.0 day
Rattus norvegicus [5] = test: Antifibrotic activity in bleomycin-induced Sprague-Dawley rat lung fibrosis model assessed as decrease in collagen I level at 2.5 to 5 mg/kg, ip administered daily for 28 days by Western blot analysis; type: functional, organism-based; settings: dose 2.5-5 mg/kg, time 28.0 day
Rattus norvegicus [6] = test: Antifibrotic activity in bleomycin-induced Sprague-Dawley rat lung fibrosis model assessed as decrease in fibronectin level at 2.5 to 5 mg/kg, ip administered daily for 28 days by Western blot analysis; type: functional, organism-based; settings: dose 2.5-5 mg/kg, time 28.0 day
Rattus norvegicus [7] = test: Antifibrotic activity in bleomycin-induced Sprague-Dawley rat lung fibrosis model assessed as suppression of TGF-beta1 level at 2.5 to 5 mg/kg, ip administered daily for 28 days by Western blot analysis; type: functional, organism-based; settings: dose 2.5-5 mg/kg, time 28.0 day
Rattus norvegicus [8] = test: Antifibrotic activity in bleomycin-induced Sprague-Dawley rat lung fibrosis model assessed as increase in cAMP level at 2.5 to 5 mg/kg, ip administered daily for 28 days by ELISA analysis; type: functional, organism-based; settings: dose 2.5-5 mg/kg, time 28.0 day
Rattus norvegicus [9] = test: Antifibrotic activity in bleomycin-induced Sprague-Dawley rat lung fibrosis model assessed as increase in cGMP level at 2.5 to 5 mg/kg, ip administered daily for 28 days by ELISA analysis; type: functional, organism-based; settings: dose 2.5-5 mg/kg, time 28.0 day
HLF [10] = test: Antifibrotic activity in TGF-beta induced HLF cell assessed as suppression of Col-I level incubated for 48 hrs by Western blot analysis; type: functional, cell-based; settings: Homo sapiens, DDE = dose-dependent effect
HLF [11] = test: Antifibrotic activity in TGF-beta induced HLF cell assessed as suppression of alpha-SMA level incubated for 48 hrs by Western blot analysis; type: functional, cell-based; settings: Homo sapiens, DDE = dose-dependent effect
HLF [12] = test: Antifibrotic activity in TGF-beta induced HLF cell assessed as suppression of FN level incubated for 48 hrs by Western blot analysis; type: functional, cell-based; settings: Homo sapiens, DDE = dose-dependent effect
HLF [13] = test: Antifibrotic activity in TGF-beta induced HLF cell assessed as suppression of Col-I level at 10 uM incubated for 48 hrs by Western blot analysis; type: functional, cell-based; settings: Homo sapiens
HLF [14] = test: Antifibrotic activity in TGF-beta induced HLF cell assessed as suppression of alpha-SMA level at 10 uM incubated for 48 hrs by Western blot analysis; type: functional, cell-based; settings: Homo sapiens
HLF [15] = test: Antifibrotic activity in TGF-beta induced HLF cell assessed as suppression of FN level at 10 uM incubated for 48 hrs by Western blot analysis; type: functional, cell-based; settings: Homo sapiens
HLF [16] = test: Antifibrotic activity in TGF-beta induced HLF cell assessed as decrease in FN level at 10 to 20 uM incubated for 48 hrs by DAPI staining based immunofluorescence microscopic analysis; type: functional; settings: Homo sapiens, dose 10-20 µM
HLF [17] = test: Antifibrotic activity in TGF-beta induced HLF cell assessed as decrease in alpha-SMA level at 10 to 20 uM incubated for 48 hrs by DAPI staining based immunofluorescence microscopic analysis; type: functional; settings: Homo sapiens, dose 10-20 µM
Rattus norvegicus [18] = test: Antifibrotic activity in bleomycin-induced Sprague-Dawley rat pulmonary fibrosis model assessed as decrease in number of lung foci at 5 mg/kg, ip administered daily for 28 days by H&E staining based histopathological analysis; type: functional, organism-based; settings: time 28.0 day
Rattus norvegicus [19] = test: Antifibrotic activity in bleomycin-induced Sprague-Dawley rat pulmonary fibrosis model assessed as smaller lung foci at 5 mg/kg, ip administered daily for 28 days by H&E staining based histopathological analysis; type: functional, organism-based; settings: time 28.0 day
Cytochrome P450 2C9 = Cytochrome P450 2C9 (Homo sapiens, UniProt P11712); test: Inhibition of CYP2C9 in human liver microsomes at 25 uM in the presence of NADPH; type: ADME, Microsome
Cytochrome P450 2C19 = Cytochrome P450 2C19 (Homo sapiens, UniProt P33261); test: Inhibition of CYP2C19 in human liver microsomes at 25 uM in the presence of NADPH; type: ADME, Microsome
[20] = biological target: Voltage-gated inwardly rectifying potassium channel KCNH2 (Homo sapiens, UniProt Q12809); test: Inhibition of hERG ion channel expressed in CHO cells by automated patch clamp electrophysiology method; type: toxicity, cell-based
[21] = Acute toxicity in overnight fasted KM mouse at 2000 mg/kg, po dosed daily for 14 days; type: organism-based; settings: in vivo, 336 h, time 14 day
[22] = biological target: cGMP-inhibited 3',5'-cyclic phosphodiesterase 3A (Homo sapiens, UniProt Q14432); test: Inhibition of PDE3A (679 to 1087 residues) (unknown origin) expressed in Escherichia coli BL21 using [3H]-cAMP as substrate at 10000 nM measured for 15 mins by liquid scintillation counter method
[23] = biological target: High affinity cAMP-specific and IBMX-insensitive 3',5'-cyclic phosphodiesterase 8A (Homo sapiens, UniProt O60658); test: Inhibition of PDE8A (480 to 820 residues) (unknown origin) expressed in Escherichia coli BL21 using [3H]-cAMP as substrate at 10000 nM measured for 15 mins by liquid scintillation counter method
[24] = biological target: High affinity cGMP-specific 3',5'-cyclic phosphodiesterase 9A (Homo sapiens, UniProt O76083); test: Inhibition of PDE9A (181 to 506 residues) (unknown origin) expressed in Escherichia coli BL21 using [3H]-cGMP as substrate at 10000 nM measured for 15 mins by liquid scintillation counter method
Sequence of High affinity cGMP-specific 3',5'-cyclic phosphodiesterase 9A (O76083 whole entry, the tested form may be a part): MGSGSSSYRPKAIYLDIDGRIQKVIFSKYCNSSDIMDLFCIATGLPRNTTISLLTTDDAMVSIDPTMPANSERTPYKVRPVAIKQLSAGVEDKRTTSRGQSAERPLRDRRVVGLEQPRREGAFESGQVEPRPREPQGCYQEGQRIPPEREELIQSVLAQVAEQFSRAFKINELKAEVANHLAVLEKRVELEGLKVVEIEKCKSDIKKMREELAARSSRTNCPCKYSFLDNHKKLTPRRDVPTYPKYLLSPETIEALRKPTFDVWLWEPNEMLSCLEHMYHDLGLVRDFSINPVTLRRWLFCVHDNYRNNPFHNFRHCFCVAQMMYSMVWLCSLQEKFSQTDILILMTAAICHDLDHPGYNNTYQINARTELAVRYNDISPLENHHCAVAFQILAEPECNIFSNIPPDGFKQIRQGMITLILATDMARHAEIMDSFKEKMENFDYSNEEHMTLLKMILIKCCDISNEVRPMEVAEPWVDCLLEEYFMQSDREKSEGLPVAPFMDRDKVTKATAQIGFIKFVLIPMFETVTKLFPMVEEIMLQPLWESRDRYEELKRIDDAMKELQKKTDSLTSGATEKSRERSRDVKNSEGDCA

Sequence of Cytochrome P450 2C9 (P11712 whole entry): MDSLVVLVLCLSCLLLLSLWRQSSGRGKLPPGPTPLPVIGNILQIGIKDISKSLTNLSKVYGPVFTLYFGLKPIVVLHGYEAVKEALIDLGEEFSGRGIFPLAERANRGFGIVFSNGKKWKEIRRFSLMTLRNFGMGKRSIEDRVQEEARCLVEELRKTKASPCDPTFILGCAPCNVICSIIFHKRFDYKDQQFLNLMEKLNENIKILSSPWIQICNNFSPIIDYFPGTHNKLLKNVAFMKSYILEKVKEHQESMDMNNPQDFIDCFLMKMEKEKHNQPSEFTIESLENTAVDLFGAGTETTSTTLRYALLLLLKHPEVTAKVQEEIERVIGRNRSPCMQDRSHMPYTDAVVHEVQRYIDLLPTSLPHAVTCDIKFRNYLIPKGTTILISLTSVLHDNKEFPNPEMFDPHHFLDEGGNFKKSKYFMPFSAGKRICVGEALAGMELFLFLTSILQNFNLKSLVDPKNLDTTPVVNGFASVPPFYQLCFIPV
Sequence of High affinity cAMP-specific and IBMX-insensitive 3',5'-cyclic phosphodiesterase 8A (O60658 whole entry, the tested form may be a part): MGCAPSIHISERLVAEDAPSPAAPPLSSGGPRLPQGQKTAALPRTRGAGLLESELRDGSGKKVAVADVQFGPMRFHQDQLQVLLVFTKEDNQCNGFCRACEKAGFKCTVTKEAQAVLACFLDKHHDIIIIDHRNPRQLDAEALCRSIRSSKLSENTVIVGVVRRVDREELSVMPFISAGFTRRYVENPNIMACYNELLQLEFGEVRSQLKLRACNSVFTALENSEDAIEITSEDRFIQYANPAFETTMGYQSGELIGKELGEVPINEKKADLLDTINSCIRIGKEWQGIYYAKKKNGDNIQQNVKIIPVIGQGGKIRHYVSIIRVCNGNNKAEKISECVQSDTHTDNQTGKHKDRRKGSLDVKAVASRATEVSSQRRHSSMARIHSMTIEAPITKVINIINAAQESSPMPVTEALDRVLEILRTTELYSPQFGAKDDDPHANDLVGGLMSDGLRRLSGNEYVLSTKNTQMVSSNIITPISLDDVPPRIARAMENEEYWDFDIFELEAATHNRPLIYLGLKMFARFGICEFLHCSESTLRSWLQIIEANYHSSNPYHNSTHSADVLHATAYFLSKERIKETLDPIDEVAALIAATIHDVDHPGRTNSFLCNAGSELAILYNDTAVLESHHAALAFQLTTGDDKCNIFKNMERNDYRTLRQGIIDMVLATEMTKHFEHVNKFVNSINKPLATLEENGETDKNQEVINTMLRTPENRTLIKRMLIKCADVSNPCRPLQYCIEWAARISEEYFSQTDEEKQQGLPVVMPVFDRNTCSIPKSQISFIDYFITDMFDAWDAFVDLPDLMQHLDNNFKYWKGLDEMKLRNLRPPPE
Sequence of cGMP-inhibited 3',5'-cyclic phosphodiesterase 3A (Q14432 whole entry, the tested form may be a part): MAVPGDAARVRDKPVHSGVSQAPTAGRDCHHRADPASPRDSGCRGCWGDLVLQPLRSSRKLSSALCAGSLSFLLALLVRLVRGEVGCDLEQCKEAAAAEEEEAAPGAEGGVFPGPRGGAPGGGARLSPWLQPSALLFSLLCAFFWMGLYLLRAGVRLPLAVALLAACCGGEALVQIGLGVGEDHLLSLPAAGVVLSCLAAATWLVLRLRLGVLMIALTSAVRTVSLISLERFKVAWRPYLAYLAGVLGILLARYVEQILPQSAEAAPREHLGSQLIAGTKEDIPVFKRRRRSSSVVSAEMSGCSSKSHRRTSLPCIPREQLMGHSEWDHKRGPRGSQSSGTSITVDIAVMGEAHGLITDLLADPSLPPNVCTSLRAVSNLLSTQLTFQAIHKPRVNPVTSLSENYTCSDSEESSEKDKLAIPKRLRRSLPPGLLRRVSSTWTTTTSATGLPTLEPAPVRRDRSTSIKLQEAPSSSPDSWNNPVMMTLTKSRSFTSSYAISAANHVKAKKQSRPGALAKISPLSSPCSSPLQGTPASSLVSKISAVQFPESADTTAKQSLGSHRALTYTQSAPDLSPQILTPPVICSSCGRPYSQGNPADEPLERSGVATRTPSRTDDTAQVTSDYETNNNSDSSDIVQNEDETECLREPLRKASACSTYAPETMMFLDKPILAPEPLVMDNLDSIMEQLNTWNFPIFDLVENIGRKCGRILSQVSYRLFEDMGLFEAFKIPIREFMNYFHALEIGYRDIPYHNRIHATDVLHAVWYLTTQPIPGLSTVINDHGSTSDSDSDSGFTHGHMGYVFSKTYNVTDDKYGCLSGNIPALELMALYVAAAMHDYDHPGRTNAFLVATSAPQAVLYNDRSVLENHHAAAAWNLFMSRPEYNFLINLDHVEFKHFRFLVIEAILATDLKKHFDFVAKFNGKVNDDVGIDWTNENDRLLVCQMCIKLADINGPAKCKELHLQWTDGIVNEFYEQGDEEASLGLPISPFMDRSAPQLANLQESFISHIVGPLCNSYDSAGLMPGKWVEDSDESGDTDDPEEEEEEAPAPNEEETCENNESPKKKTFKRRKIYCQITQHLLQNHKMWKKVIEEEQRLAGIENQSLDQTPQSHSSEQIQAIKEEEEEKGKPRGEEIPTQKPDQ
Sequence of Cytochrome P450 2C19 (P33261 whole entry): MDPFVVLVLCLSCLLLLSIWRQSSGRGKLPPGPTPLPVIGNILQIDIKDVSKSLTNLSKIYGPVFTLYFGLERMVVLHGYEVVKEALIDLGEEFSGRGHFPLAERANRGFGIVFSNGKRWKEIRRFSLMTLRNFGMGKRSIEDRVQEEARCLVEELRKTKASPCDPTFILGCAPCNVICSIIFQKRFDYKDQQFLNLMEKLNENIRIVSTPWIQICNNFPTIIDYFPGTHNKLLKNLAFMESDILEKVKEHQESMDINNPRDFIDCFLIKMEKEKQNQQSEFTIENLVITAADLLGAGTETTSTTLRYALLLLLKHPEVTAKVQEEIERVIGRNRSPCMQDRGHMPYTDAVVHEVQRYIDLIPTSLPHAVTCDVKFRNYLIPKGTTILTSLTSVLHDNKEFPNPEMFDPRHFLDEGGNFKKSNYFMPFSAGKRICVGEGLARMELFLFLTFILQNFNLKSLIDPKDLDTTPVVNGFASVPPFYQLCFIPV
Sequence of Voltage-gated inwardly rectifying potassium channel KCNH2 (Q12809 whole entry): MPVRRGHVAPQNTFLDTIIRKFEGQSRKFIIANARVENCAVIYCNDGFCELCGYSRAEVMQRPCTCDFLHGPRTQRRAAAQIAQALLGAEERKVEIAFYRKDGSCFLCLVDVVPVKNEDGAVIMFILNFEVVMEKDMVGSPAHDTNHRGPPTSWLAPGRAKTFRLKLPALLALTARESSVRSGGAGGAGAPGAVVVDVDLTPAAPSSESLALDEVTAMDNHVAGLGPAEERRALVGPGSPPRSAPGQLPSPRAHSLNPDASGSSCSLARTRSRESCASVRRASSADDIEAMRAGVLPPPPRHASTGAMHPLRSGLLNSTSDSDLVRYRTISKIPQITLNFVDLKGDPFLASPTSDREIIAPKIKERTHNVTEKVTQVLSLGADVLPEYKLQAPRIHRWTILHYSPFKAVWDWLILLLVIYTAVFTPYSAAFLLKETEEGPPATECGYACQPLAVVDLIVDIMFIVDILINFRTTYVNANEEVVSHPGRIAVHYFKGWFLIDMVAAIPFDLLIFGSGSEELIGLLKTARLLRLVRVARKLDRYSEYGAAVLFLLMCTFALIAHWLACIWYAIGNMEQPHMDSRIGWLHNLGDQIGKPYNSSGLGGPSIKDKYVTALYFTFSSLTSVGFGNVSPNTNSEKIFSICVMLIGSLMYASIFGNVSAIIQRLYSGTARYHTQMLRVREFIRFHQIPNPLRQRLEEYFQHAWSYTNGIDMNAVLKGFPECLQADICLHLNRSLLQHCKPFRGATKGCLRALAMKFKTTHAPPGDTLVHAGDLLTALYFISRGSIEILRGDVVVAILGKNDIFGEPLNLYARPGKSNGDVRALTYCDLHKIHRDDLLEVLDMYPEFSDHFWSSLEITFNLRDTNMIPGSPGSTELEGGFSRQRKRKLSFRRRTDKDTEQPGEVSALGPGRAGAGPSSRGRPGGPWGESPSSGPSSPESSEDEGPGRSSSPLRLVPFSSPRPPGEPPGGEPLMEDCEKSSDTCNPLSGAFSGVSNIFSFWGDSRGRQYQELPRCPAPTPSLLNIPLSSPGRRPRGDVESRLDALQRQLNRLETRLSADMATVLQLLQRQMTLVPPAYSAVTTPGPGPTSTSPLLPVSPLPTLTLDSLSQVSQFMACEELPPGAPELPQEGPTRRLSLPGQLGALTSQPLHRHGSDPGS

CC1=C(C(=O)O[C@H](C)c2ccccc2)C(c2ccc3c(cnn3C)c2)C(C(=O)O[C@H](C)c2ccccc2)=C(C)N1
active: Activity (Rattus norvegicus [1]) | Activity (Rattus norvegicus [2]) | Activity (Rattus norvegicus [3]) | Activity (Rattus norvegicus [4]) | Activity (Rattus norvegicus [5]) | Activity (Rattus norvegicus [6]) | Activity (Rattus norvegicus [7]) | Activity (Rattus norvegicus [8]) | Activity (Rattus norvegicus [9]) | Activity (HLF [10]) Dde | Activity (HLF [11]) Dde | Activity (HLF [12]) Dde | Activity (HLF [13]) | Activity (HLF [14]) | Activity (HLF [15]) | Activity (HLF [16]) | Activity (HLF [17]) | Activity (Rattus norvegicus [18]) | Activity (Rattus norvegicus [19])
4.6 µM: IC50 (Cytochrome P450 2C9)
Non-Toxic: Activity [21]
> 40 µM: IC50 [20]
< 50%: inhibition [22] | inhibition [23] | inhibition [24]
3.9 µM: IC50 (Cytochrome P450 2C19)
